Reference: ChEMBL document CHEMBL6115017, “Discovery of DFV890, a Potent Sulfonimidamide-Containing NLRP3 Inflammasome Inhibitor” (J Med Chem, 2025)
In brackets after ≈: the same amount, converted by molar mass. Activity calls are given as the source filed them. The calls are words filed in the database; no cut-off is given here.

How the values were obtained:
Cytochrome P450 2C9 [1] = target: T1, Cytochrome P450 2C9 (Homo sapiens, UniProt P11712); assay: Inhibition of CYP2C9 (unknown origin); type: ADME
T1 sequence (P11712 whole entry): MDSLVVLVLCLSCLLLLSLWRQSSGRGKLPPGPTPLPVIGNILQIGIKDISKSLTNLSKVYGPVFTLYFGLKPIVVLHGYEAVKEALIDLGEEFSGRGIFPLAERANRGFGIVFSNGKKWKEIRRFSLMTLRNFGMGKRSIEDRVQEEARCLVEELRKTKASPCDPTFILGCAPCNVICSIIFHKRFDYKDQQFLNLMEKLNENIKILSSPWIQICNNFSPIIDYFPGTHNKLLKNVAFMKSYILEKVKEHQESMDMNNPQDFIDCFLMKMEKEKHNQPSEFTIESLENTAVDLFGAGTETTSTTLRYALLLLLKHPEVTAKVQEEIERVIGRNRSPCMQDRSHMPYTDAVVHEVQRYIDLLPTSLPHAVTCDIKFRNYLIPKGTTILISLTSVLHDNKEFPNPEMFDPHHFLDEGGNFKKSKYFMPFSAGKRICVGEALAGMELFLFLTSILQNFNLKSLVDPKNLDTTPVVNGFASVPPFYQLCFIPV

[2] = Thermodynamic solubility in Simulated colon solution; type: physicochemical; conditions: read-out: Therm_solubility
[3] = Fraction unbound in human plasma; type: ADME, cell-free
[4] = Metabolic stability in mouse hepatocytes assessed as intrinsic clearance measured per 10^6 cells; type: ADME, cell-based, Hepatocyte; conditions: read-out: CLH
Cytochrome P450 3A4 = Cytochrome P450 3A4 (Homo sapiens, UniProt P08684); assay: Inhibition of CYP3A4 (unknown origin); type: ADME
Mus musculus [5] = assay: In vivo anti-inflammatory activity against MSU crystal-induced gouty arthritis Balb/c mouse model assessed as reduction in neutrophil recruitment in at 0.1 to 50 mg/kg, po single dose; type: functional, organism-based; conditions: dose 0.1-50 mg/kg
Cytochrome P450 2D6 = Cytochrome P450 2D6 (Homo sapiens, UniProt P10635); assay: Inhibition of CYP2D6 (unknown origin) by time dependent inhibition assay; type: ADME
[6] = target: 5-hydroxytryptamine receptor 2A (Homo sapiens) (UniProt P28223); assay: Inhibition of 5HT2A (unknown origin); conditions: concentration not given here
Sequence of 5-hydroxytryptamine receptor 2A (Homo sapiens) (P28223 whole entry): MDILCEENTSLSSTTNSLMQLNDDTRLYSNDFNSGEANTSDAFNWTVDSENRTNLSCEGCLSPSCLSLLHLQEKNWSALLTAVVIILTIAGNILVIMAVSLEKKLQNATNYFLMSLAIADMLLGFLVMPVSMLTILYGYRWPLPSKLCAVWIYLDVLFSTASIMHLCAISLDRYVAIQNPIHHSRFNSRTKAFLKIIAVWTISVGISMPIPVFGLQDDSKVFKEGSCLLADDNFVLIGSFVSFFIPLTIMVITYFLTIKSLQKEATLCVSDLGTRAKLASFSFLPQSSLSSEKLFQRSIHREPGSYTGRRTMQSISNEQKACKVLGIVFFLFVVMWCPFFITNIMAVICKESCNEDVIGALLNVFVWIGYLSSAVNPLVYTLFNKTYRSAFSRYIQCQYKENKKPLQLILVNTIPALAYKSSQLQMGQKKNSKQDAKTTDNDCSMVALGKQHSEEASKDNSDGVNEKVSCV

[7] = In vivo inhibition of NLRP3 dependent cytokine production in po dosed LPS-challenged C57BL/6 mouse model assessed as inhibition of LPS-induced IL-1beta production in blood by measuring plasma compound concentration by enhanced flex bead assay; type: functional, organism-based
[8] = Oral bioavailability in Sprague-Dawley rat at 5 mg/kg administered through oral gavage by LC-MS analysis; type: ADME, organism-based; conditions: in vivo
[9] = Metabolic stability in rat hepatocytes assessed as intrinsic clearance measured per 10^6 cells; type: ADME, cell-based, Hepatocyte; conditions: read-out: CLH
[10] = Half life in Sprague-Dawley rat at 5 mg/kg, po by LC-MS analysis; type: ADME, organism-based; conditions: in vivo
[11] = Lipophilicity, log D of compound in potassium phosphate buffer/octanol at pH 7.4; type: physicochemical
[12] = Cmax in C57 BL6 mouse at 10 mg/kg, po by LC-MS analysis; type: ADME, organism-based; conditions: in vivo
Cytochrome P450 2C9 [13] = target: T1, Cytochrome P450 2C9; assay: Inhibition of CYP2C9 (unknown origin) by time dependent inhibition assay; type: ADME
[14] = AUC (infinity) in Sprague-Dawley rat at 5 mg/kg, po by LC-MS analysis; type: ADME, organism-based; conditions: in vivo
Bile salt export pump = Bile salt export pump (Homo sapiens, UniProt O95342); assay: Inhibition of BSEP (unknown origin) assessed as reduction in uptake rate of taurocholic acid at 5 uM relative to control; type: toxicity
Sequence of Bile salt export pump (O95342 whole entry): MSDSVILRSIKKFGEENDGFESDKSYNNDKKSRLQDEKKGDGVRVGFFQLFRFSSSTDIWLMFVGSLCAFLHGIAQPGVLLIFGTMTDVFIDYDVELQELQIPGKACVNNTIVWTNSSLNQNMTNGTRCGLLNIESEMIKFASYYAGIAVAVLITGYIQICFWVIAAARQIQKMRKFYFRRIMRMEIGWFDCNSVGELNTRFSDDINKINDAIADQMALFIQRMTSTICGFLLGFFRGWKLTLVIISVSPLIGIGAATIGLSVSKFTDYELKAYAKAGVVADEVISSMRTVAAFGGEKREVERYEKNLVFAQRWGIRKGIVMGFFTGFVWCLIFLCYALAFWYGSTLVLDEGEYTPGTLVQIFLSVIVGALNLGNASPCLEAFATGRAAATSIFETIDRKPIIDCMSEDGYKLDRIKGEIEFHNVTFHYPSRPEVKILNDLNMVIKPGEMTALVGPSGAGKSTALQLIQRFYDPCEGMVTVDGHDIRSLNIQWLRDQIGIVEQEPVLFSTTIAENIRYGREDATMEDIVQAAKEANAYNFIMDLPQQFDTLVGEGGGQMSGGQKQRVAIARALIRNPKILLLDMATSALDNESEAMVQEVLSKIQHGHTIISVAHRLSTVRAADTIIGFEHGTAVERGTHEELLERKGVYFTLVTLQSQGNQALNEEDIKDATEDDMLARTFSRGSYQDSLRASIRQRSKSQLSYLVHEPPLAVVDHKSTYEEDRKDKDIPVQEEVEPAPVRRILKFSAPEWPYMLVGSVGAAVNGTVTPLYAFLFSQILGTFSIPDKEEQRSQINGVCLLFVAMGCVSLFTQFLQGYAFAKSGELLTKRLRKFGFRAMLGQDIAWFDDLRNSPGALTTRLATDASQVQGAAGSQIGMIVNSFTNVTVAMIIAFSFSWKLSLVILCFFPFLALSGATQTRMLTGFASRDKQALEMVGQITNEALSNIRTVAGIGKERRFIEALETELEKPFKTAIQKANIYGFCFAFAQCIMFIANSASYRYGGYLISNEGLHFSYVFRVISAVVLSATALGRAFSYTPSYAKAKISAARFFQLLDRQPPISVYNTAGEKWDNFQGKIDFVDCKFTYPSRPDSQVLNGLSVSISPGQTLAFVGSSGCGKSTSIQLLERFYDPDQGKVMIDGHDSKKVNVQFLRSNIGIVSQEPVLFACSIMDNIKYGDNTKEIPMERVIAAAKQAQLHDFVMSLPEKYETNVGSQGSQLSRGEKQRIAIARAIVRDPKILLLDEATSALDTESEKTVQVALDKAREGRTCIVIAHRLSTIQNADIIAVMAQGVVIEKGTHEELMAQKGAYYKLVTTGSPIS

[15] = Fraction unbound in C57 BL6 mouse plasma; type: ADME, cell-free
[16] = Cmax in Sprague-Dawley rat at 5 mg/kg, po by LC-MS analysis; type: ADME, organism-based; conditions: in vivo
[17] = Cytotoxicity against mouse CT26 cells measured after 72 hrs; type: toxicity, cell-based
THP-1 [18] = assay: Inhibition of pyroptosis in PMA-primed human THP-1 cells assessed as release of lactate dehydrogenase
[19] = Volume of distribution at steady state in Cynomolgus monkey at 5 mg/kg, po and 2 mg/kg, iv by LC-MS analysis; type: ADME, organism-based, Macaca fascicularis; conditions: in vivo
[20] = Fraction unbound in Sprague-Dawley rat plasma; type: ADME, cell-free
[21] = target: Nucleotide-binding oligomerization domain-containing protein 2 (Homo sapiens) (UniProt Q9HC29); assay: Inhibition of human NOD2 inflammasome activation expressed in […] cells assessed as inhibition of L18-MDP induced NF-kappaB activation by measuring SEAP activity pretreated for 1 hr followed by induced with L18-MDP measured after 18 hrs by Spectrophotometric analysis; type: cell-based; conditions: HEK, time 19.0 hrs
Sequence of Nucleotide-binding oligomerization domain-containing protein 2 (Homo sapiens) (Q9HC29 whole entry, the tested form may be a part): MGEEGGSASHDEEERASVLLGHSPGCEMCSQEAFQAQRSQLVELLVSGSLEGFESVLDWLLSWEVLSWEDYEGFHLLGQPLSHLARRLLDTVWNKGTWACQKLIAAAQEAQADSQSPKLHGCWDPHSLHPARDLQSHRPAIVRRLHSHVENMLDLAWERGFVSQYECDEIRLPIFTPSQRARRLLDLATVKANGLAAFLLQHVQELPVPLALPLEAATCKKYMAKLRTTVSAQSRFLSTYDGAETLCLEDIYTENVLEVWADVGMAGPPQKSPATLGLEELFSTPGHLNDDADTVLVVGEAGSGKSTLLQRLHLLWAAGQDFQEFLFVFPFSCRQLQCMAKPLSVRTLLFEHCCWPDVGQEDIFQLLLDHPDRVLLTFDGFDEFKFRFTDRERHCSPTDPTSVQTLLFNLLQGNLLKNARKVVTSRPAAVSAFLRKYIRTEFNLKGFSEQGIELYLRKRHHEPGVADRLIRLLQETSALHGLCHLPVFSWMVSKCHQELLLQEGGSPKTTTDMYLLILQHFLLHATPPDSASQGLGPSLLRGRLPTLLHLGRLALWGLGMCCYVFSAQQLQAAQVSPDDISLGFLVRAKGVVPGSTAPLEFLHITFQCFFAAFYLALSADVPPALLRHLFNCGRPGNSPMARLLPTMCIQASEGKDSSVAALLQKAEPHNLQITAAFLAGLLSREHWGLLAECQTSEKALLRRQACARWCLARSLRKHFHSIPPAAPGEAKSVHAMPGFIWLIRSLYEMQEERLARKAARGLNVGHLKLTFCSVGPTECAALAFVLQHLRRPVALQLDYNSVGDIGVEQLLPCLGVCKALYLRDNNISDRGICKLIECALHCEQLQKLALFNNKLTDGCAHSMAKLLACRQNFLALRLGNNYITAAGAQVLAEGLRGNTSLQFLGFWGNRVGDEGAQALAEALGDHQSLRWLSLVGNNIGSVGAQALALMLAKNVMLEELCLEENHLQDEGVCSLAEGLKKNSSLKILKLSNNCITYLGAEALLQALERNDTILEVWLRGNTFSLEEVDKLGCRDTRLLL

THP-1 [22] = assay: Antagonist activity against […] in PMA-primed human THP-1 cells assessed as inhibition of PrgI-induced IL-1beta release measured pretreated for 1 hr followed by induced with LFn-PrgI measured after 2 hr incubation by HTRF analysis; type: cell-based; conditions: time 3.0 hrs
[23] = Cmax in Cynomolgus monkey at 5 mg/kg, po by LC-MS analysis; type: ADME, organism-based, Macaca fascicularis; conditions: in vivo
[24] = Cytotoxicity against human HEK293 cells measured after 72 hrs; type: toxicity, cell-based
Mus musculus [25] = assay: In vivo anti-inflammatory activity against MSU crystal-induced gouty arthritis Balb/c mouse model assessed as reduction of volume of pouch exudate at 0.1 to 50 mg/kg, po single dose; type: functional, organism-based; conditions: dose 0.1-50 mg/kg
Mus musculus [26] = assay: In vivo inhibition of NLRP3 dependent cytokine production in po dosed LPS-challenged C57BL/6 mouse model assessed as inhibition of LPS-induced IL-18 production in blood pretreated for 1 hr followed by induced with LPS measured after 5 hrs by cytokine bead assay; type: functional, organism-based; conditions: time 6.0 hrs
[27] = Volume of distribution at steady state in Sprague-Dawley rat at 5 mg/kg, po by LC-MS analysis; type: ADME, organism-based; conditions: in vivo
[28] = Metabolic stability in Cynomolgus monkey hepatocytes assessed as intrinsic clearance measured per 10^6 cells; type: ADME, cell-based, Macaca fascicularis, Hepatocyte; conditions: read-out: CLH
Cytochrome P450 2C19 = Cytochrome P450 2C19 (Homo sapiens, UniProt P33261); assay: Inhibition of CYP2C19 (unknown origin) by time dependent inhibition assay; type: ADME
Cytochrome P450 3A5 = Cytochrome P450 3A5 (Homo sapiens, UniProt P20815); assay: Inhibition of CYP3A5 (unknown origin) by time dependent inhibition assay; type: ADME
Sequence of Cytochrome P450 3A5 (P20815 whole entry): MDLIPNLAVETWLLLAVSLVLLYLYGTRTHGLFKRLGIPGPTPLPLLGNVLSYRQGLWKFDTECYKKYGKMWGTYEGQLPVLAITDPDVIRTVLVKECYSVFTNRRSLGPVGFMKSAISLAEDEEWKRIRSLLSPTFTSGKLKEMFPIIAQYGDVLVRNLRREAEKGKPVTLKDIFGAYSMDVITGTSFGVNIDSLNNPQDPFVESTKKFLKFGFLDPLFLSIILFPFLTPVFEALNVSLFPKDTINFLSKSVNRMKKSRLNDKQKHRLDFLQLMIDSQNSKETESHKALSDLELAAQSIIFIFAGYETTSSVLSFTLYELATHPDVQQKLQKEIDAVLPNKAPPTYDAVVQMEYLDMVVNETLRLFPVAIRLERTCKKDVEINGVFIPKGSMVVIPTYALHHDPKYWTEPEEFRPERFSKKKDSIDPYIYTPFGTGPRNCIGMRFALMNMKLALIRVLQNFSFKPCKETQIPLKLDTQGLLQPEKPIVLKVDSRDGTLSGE

cells = conditions: Macaca fascicularis, PBMC
Description: Antagonist activity at NLRP3 inflammasome activation in Cynomolgus monkey PBMC assessed as inhibition of LPS-stimulated IL-1beta release pretreated for 1 hr followed by induced with LPS measured after 18 hrs by HTRF analysis

Cytochrome P450 2B6 = target: T2, Cytochrome P450 2B6 (Homo sapiens, UniProt P20813); assay: Inhibition of CYP2B6 (unknown origin); type: ADME
T2 sequence (P20813 whole entry): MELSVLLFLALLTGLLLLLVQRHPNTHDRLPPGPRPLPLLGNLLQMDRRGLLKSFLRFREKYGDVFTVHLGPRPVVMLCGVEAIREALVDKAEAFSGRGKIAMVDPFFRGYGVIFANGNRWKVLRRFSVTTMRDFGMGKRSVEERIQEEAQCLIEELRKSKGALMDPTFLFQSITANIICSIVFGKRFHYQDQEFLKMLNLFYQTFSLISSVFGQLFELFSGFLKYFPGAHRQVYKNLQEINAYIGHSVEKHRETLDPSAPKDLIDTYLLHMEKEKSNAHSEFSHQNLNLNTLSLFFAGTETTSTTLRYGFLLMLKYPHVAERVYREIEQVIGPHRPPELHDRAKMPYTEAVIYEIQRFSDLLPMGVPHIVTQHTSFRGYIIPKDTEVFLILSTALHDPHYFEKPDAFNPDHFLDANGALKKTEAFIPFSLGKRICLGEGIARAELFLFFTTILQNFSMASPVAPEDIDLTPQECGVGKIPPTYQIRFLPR

hERG = hERG (Homo sapiens, UniProt Q12809); assay: Inhibition of hERG at 30 uM relative to control; type: toxicity
Sequence of hERG (Q12809 whole entry): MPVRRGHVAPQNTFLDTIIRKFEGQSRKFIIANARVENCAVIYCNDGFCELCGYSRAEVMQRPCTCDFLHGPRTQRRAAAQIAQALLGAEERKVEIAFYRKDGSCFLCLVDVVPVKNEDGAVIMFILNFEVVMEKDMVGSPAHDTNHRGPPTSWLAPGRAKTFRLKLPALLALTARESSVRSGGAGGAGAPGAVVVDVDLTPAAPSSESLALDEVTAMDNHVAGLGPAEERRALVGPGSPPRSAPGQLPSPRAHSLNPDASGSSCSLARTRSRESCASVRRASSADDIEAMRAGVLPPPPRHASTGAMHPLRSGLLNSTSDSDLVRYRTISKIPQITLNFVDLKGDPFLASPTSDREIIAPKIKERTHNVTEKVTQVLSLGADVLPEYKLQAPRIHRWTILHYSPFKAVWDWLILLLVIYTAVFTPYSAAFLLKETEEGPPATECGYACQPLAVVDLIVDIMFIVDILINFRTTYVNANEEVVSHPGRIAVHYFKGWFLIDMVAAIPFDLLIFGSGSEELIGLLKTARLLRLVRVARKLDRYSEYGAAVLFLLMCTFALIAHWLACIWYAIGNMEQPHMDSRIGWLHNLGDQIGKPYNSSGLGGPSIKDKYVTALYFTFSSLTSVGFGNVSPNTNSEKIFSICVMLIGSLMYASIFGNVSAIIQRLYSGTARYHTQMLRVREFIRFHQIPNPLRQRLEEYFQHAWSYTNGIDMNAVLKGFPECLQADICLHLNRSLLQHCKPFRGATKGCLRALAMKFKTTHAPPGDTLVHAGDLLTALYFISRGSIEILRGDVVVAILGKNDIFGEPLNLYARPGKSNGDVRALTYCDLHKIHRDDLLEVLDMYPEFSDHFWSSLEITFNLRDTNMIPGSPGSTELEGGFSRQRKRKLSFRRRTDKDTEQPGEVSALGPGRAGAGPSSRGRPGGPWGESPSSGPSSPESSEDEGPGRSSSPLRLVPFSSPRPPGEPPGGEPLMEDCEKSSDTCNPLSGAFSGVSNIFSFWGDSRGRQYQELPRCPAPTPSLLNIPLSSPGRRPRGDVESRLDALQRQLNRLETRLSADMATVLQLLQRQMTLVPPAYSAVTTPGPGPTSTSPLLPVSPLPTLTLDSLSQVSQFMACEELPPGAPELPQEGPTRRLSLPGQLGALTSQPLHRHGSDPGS

[29] = Cmax in Beagle dog at 2 mg/kg, po by LC-MS analysis; type: ADME, organism-based, Canis lupus familiaris; conditions: in vivo
[30] = Oral bioavailability in Cynomolgus monkey at 5 mg/kg administrated through oral gavage and 2 mg/kg, iv by LC-MS analysis; type: ADME, organism-based, Macaca fascicularis; conditions: in vivo
[31] = Fraction unbound in Cynomolgus monkey plasma; type: ADME, cell-free, Macaca fascicularis
[32] = Oral bioavailability in C57 BL6 mouse at 10 mg/kg administrated through oral gavage by LC-MS analysis; type: ADME, organism-based; conditions: in vivo

Question: Which results are given for `CC(C)(O)c1ncc([S@](N)(=O)=NC(=O)Nc2c3c(cc4c2CCC4)CCC3)s1`?
Answer: IC50 (Cytochrome P450 2C9 [1]): > 60 µM; solubility thermodynamic [2]: 31.9 µg/mL (≈ 75.9 µM); fraction unbound [3]: 0.006; hepatocyte CLint [4]: < 1.9 µL/min/1e6 cells; IC50 (Cytochrome P450 3A4): > 60 µM; Activity (Mus musculus [5]): Active; TDI (Cytochrome P450 2D6): Not_active; inhibition [6]: > 50%; IC50 ([7]; Mus musculus, C57BL/6): 0.416 µg/mL; IC90 ([7]; route po): 3.742 µg/mL; bioavailability [8]: 82%; hepatocyte CLint [9]: 7.5 µL/min/1e6 cells; half-life [10]: 2.81 h; logD [11]: 2.37; Cmax [12]: 22200 ng/mL; TDI (Cytochrome P450 2C9 [13]): Not_active; AUC [14]: 49125 ng·h/mL; Activity (Bile salt export pump): Not_active; fraction unbound [15]: 0.015; Cmax [16]: 8860 ng/mL; EC50 at 72 h [17]: > 100 µM; IC50 (THP-1 [18]): 0.027 µM; Vdss [19]: 0.084 L/kg; fraction unbound [20]: 0.012; Activity [21]: inactive; Activity (THP-1 [22]): inactive; Cmax [23]: 21500 ng/mL; EC50 at 72 h [24]: > 100 µM; Activity (Mus musculus [25]): Active; inhibition (Mus musculus [26]): Dose-dependent-effect; Vdss [27]: 0.188 L/kg; hepatocyte CLint [28]: 4.2 µL/min/1e6 cells; TDI (Cytochrome P450 2C19): Not_active; TDI (Cytochrome P450 3A5): Not_active; IC50 (cells): 0.0061 µM; IC50 (Cytochrome P450 2B6): > 60 µM; inhibition at 30 µM (hERG): 8%; Cmax [29]: 6560 ng/mL; bioavailability [30]: 83%; fraction unbound [31]: 0.005; bioavailability [32]: 61%
